Article PMC8333425, “Discovery of a dual Ras and ARF6 inhibitor from a GPCR endocytosis screen” (Nature Communications, 2021)

Columns and labels:
β-arrestin2 = experiment: Confocal microscopy of β-arrestin2-YFP trafficking with B2R; assay type: cell-based, human; settings: 50 μM; BK
Method: One day before transfection, cells were seeded in 35-mm glass-bottom dishes (MatTek Corporation) at a density of 1 × 10^5 cells per dish. For the recordings of receptor internalization, HEK293 SL cells were transfected with 2 μg of AT1R-YFP. For the recordings of β-arrestin-2 recruitment to the receptor, HEK293SL cells were transfected with 50 ng of β-arrestin2-YFP and 250 ng of Flag-AT1R or HA-B2R. Forty-eight hours post-transfection, cells were serum starved, preincubated with DMSO (0.1% final concentration) or Rasarfin (50 μM) for 30 min at 37 °C. AT1R-expressing cells were stimulated with angiotensinII (AngII; 100 nM) and B2R-expressing cells were stimulated with bradykinin (BK; 1 μM) for 30 min (receptor-YFP) or 15 min (β-arrestin2-YFP). Cells were imaged with Zeiss LSM-510 and/or LSM-710 laser scanning confocal microscope. To detect YFP, […] and BP 505–550 nm emission filter. Images (2048 × 2048) were collected using a 63x oil immersion lens.

Ras = Ras BRET sensor (Raf1-RBD-RlucII / rGFP-CAAX), AT1R-mediated; assay type: cell-based, human
Text: Since 21 inhibited both ERK1/2 and Akt activation by GPCRs and EGFR, we looked at a common target involved in both pathways. The small G protein Ras is an upstream regulator of both Ras-RAF-MEK-ERK and PI3K/Akt signaling pathways[35],[36]. Therefore, we explored 21’s ability to inhibit Ras activity using GST-Raf1-Ras-binding domain (RBD) in a pull-down assay. A reduction of 60% in GTP-bound Ras was noticed in pulled-down from cells treated with 21 and stimulated with either AT1R or EGFR, as compared to vehicle-treated cells (Fig. 4a, b). Complementary to this in vitro assay, we generated a Ras BRET assay, using the Raf-Ras binding domain tagged with RlucII (Raf1-RBD-RlucII) and the rGFP at the PM (rGFP-CAAX) (Supplementary Fig. 3c), to assess 21’s effects on Ras activation kinetics. […] Overexpression of either the active form of Ras (G12V) or SOS1 anchored at the PM (SOS-CAAX) produced a robust basal BRET signal that was no longer modulated by receptor activation (Supplementary Fig. 3d). […] 21’s potency to inhibit ARF6 and Ras is also consistent with its relative efficacy for inhibiting AT1R internalization and MAPK, respectively, when used at 50 μM (e.g., around 7 and 70 times the respective IC50s) (Figs. 2e and 3a). We also assessed if 21 was acting as a pan small G protein inhibitor by testing its effect on Rho and Rac/Cdc42. […] To assess Rac/Cdc42 activity, we generated a Rac/Cdc42 BRET sensor that consisted of the PAK-CRIB domain fused to RlucII (PAK-CRIB-RlucII) and the rGFP-CAAX (Supplementary Fig. 3e). PAK-CRIB, which binds to active Rac/Cdc42, was recruited to the PM upon AngII stimulation of cells and generated a robust BRET signal, which was blocked by the overexpression of the DN Rac1-T17N. Overexpression of the constitutively active Rac1-Q61L increased the basal BRET, which was no longer modulated by AT1R stimulation (Supplementary Fig. 3f).
HEK293SL cells were seeded at a density of 7.5 × 10^5 cells per 100-mm dish and 24 h later, transiently transfected as such. For receptor internalization experiments, cells were transfected with 0.12 μg AT1R-RlucII, B2R-RlucII, or β2AR-RlucII and 0.48 μg of either rGFP-CAAX (to assess removal from the PM) or rGFP-FYVE (to assess accumulation in the endosomes). For β-arrestin recruitment assays, cells were transfected with 0.48 μg of receptor-YFP along with 0.12 μg of β-arrestin-RlucII. For β-arrestin/AP-2 binding experiments, cells were transfected with 1 μg Flag-AT1R, 1 μg β2-Adaptin-YFP, and 0.12 μg β-arrestin2-RlucII. For G protein activation, cells were transfected with 3 μg of sp-Flag-AT1R along with either 4.5 μg of the Gαq-polycistronic BRET sensor or 0.24 μg of the Gαi3-RlucII and 0.6 μg of GFP10-Gγ2 and Gβ1 sensors or 0.12 μg PKN-RBD-RlucII and 0.48 μg of rGFP-CAAX. For PKC activation, cells were transfected with 3 μg of sp-Flag-AT1R and 0.18 μg of the PKC sensor. For GTPase activation experiments, cells were transfected with 1 μg Flag-AT1R, 0.48 μg of rGFP-CAAX, and either 0.12 μg of GGA3-PBD-RlucII, PAK-CRIB-RlucII or Raf-RBD-RlucII. For biosensor validation experiments, cells were additionally transfected with 500 ng Flag-K-Ras-WT, Flag-K-Ras-G12V, Flag-K-Ras-SOS-CAAX, HA-ARF6-WT, HA-ARF6-T27N, Myc-Rac1-WT, Myc-Rac1-Q61L or Myc-Rac1-T17N. For PI3K/Akt activation experiments, cells were transfected with 0.48 μg of rGFP-CAAX and 0.12 μg of Akt (PH)-RlucII. After 18 h of transfection, the media was replaced and cells were divided for subsequent experiments. Cells were detached and seeded onto poly-L-ornithine-coated 96-well flat white bottom plates (BrandTech Scientific) at a density of 2.5 × 10^4 cells per well in media. The next day, cells were washed once with Tyrode’s buffer (140 mM NaCl, 2.7 mM KCl, 1 mM CaCl2, 12 mM NaHCO3, 5.6 mM D-glucose, 0.5 mM MgCl2, 0.37 mM NaH2PO4, 25 mM HEPES, pH 7.4) and left in Tyrode’s buffer. […]

CC(C)C(=O)N1CCN(c2ccc(NC(=O)c3cc4ccccc4o3)cc2Cl)CC1 [Compound 21]
β-arrestin trafficking with B2R into endosomes (microscopy) (β-arrestin2): prevented β-arrestins’ trafficking with receptors into endosomes | decrease of Ras activation following AT1R stimulation (Ras BRET assay) (Ras; 50 μM): 50–70% | IC50 (Ras; AT1R, dose-response): 700 nM | Ras BRET sensor signal (Fig.4c), single experiments (Ras; Comp 21 50 μM, Time 0 min): 0 | Ras MEAN (Fig.4d) (Ras; Log [Comp 21] (M) -4): 16.3196 | Ras MEAN (Fig.4d) (Ras; Log [Comp21] (M) -4.3): 30.5907 | Ras MEAN (Fig.4d) (Ras; Log [Comp21] (M) -5): 29.6351 | Ras MEAN (Fig.4d) (Ras; Log [Comp21] (M) -5.3): 36.1989 | Ras MEAN (Fig.4d) (Ras; Log [Comp 21] (M) -6): 54.1758 | Ras MEAN (Fig.4d) (Ras; Log [Comp21] (M) -6.3): 74.1367 | Ras MEAN (Fig.4d) (Ras; Log [Comp 21] (M) -7): 95.616
